Measured values reported in US20140163012A1, “PYRIDO-/AZEPINO-BENZOFURAN AND PYRIDO-/AZEPINO-BENZOTHIOPHENE MCH-1 ANTAGONISTS, METHODS OF MAKING, AND USE THEREOF” (Albany Molecular Research, Inc., priority 2012, published 2014).
pKi: −log10 of the molar value. Counter-ions that a name gives are not always drawn.

Biological target: human MCH-1 receptor (Homo sapiens, UniProt Q99705)
Assay: Binding assay for human melanin-concentrating hormone (MCH-1) receptor, radioligand displacement on CHO-K1 cell membranes
Method: Nonspecific binding was determined in the presence of 50 μM 1-(5-(4-cyanophenyl)bicyclo[3.1.0]hexan-2-yl)-3-(4-fluoro-3-(trifluoromethyl)phenyl)-1-(3-(4-methylpiperazin-1-yl)propyl)urea. […] The filters were counted for radioactivity in a liquid scintillation counter (Tri-Carb 2100TR, Packard) using a scintillation cocktail (Ultima Gold MV, Perkin Elmer).
The results are expressed as a percent inhibition of the control radioligand specific binding. The IC50 value (concentration causing a half-maximal inhibition of control specific binding) and Hill coefficient (nH) were determined by non-linear regression analysis of the competition curve using Hill equation curve fitting.

human MCH-1 receptor, sequence (Q99705 whole entry): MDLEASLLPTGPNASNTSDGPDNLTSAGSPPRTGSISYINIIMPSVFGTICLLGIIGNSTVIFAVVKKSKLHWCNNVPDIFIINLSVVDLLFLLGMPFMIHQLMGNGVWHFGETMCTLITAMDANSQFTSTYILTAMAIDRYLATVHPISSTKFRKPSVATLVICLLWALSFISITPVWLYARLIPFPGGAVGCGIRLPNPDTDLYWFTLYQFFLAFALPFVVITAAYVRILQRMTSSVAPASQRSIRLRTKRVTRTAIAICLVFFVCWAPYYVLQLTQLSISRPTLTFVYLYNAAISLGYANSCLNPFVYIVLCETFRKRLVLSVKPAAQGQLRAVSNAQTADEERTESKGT

Work on `CC(=O)N1CCc2oc3cc(-n4ccc(OCc5ccc(F)cn5)cc4=O)ccc3c2C1` [Example 29, 1-(2-Acetyl-1,2,3,4-tetrahydrobenzofuro[3,2-c]pyridin-7-yl)-4-((5-fluoropyridin-2-yl)methoxy)pyridin-2(1H)-one] yielded a pKi of 7.34.
Compound `CC(C)N1CCc2oc3cc(-n4ccc(OCc5ccccc5)cc4=O)ccc3c2C1` [Example 30, 4-(Benzyloxy)-1-(2-isopropyl-1,2,3,4-tetrahydrobenzofuro[3,2-c]pyridin-7-yl)pyridin-2(1H)-one hydrochloride] has a pKi of 8.05.
In the case of `O=c1cc(OCc2cccc(C(F)(F)F)n2)ccn1-c1ccc2c3c(oc2c1)CCNC3` [Example 31, 1-(1,2,3,4-Tetrahydrobenzofuro[3,2-c]pyridin-7-yl)-4-((6-(trifluoromethyl)pyridin-2-yl)methoxy)pyridin-2(1H)-one hydrochloride], the pKi was 7.64.
With `C[C@H]1Cc2oc3cc(-n4ccc(OCc5ccccc5)cc4=O)ccc3c2CN1` [Example 32, (S)-4-(Benzyloxy)-1-(3-methyl-1,2,3,4-tetrahydrobenzofuro[3,2-c]pyridin-7-yl)pyridin-2(1H)-one hydrochloride] the pKi was 8.13.
`C[C@@H]1NCCc2oc3cc(-n4ccc(OCc5ccccc5)cc4=O)ccc3c21` [Example 33, (S)-4-(Benzyloxy)-1-(1-methyl-1,2,3,4-tetrahydrobenzofuro[3,2-c]pyridin-7-yl)pyridin-2(1H)-one hydrochloride] gave a pKi of 8.22.
`C[C@H]1Cc2oc3cc(-n4ccc(OCc5ccccn5)cc4=O)ccc3c2CN1` [Example 34, (S)-1-(3-Methyl-1,2,3,4-tetrahydrobenzofuro[3,2-c]pyridin-7-yl)-4-(pyridin-2-ylmethoxy)pyridin-2(1H)-one hydrochloride] was tested, and the pKi was 7.42.
With `C[C@@H]1NCCc2oc3cc(-n4ccc(OCc5ccccn5)cc4=O)ccc3c21` [Example 35, (S)-1-(1-Methyl-1,2,3,4-tetrahydrobenzofuro[3,2-c]pyridin-7-yl)-4-(pyridin-2-ylmethoxy)pyridin-2(1H)-one hydrochloride] the pKi was 7.24.
With `O=c1cc(-c2ccc(C(F)(F)F)cn2)ccn1-c1ccc2c3c(oc2c1)CCCNC3` [Example 36, 1-(2,3,4,5-Tetrahydro-1H-benzofuro[3,2-c]azepin-8-yl)-4-(5-(trifluoromethyl)pyridin-2-yl)pyridin-2(1H)-one hydrochloride] the pKi was 7.41.
`O=c1cc(OCc2ccc(F)cn2)ccn1-c1ccc2c3c(oc2c1)CCCNC3` [Example 37, 4-((5-Fluoropyridin-2-yl)methoxy)-1-(2,3,4,5-tetrahydro-1H-benzofuro[3,2-c]azepin-8-yl)pyridin-2(1H)-one hydrochloride] showed a pKi of 8.35.
In the case of `O=c1cc(OCc2ccc(Cl)cn2)ccn1-c1ccc2c3c(oc2c1)CCCNC3` [Example 38, 4-((5-Chloropyridin-2-yl)methoxy)-1-(2,3,4,5-tetrahydro-1H-benzofuro[3,2-c]azepin-8-yl)pyridin-2(1H)-one hydrochloride], the pKi was 8.52.
`O=c1cc(OCc2ccc(F)cn2)ccn1-c1ccc2c3c(oc2c1)CCNCC3` [Example 39, 4-((5-Fluoropyridin-2-yl)methoxy)-1-(2,3,4,5-tetrahydro-1H-benzofuro[2,3-d]azepin-8-yl)pyridin-2(1H)-one hydrochloride] gave a pKi of 8.05.
`O=c1cc(OCc2ccccc2)ccn1-c1ccc2c3c(oc2c1)CCCNC3` [Example 40, 4-(Benzyloxy)-1-(2,3,4,5-tetrahydro-1H-benzofuro[3,2-c]azepin-8-yl)pyridin-2(1H)-one hydrochloride] showed a pKi of 8.47.
For `O=c1cc(OCc2ccccc2)ccn1-c1ccc2c3c(oc2c1)CCNCC3` [Example 41, 4-(Benzyloxy)-1-(2,3,4,5-tetrahydro-1H-benzofuro[2,3-d]azepin-8-yl)pyridin-2(1H)-one hydrochloride], the pKi was 8.24.
`O=c1cc(OCc2ccc(Cl)cn2)ccn1-c1ccc2c3c(oc2c1)CCNCC3` [Example 42, 4-((5-Chloropyridin-2-yl)methoxy)-1-(2,3,4,5-tetrahydro-1H-benzofuro[2,3-d]azepin-8-yl)pyridin-2(1H)-one hydrochloride] gave a pKi of 8.33.
